In ChEMBL document CHEMBL5696441 (Nat Chem Biol, 2011):

Assays:
[1] = target: Calcium/calmodulin-dependent protein kinase type II subunit beta (Homo sapiens) (UniProt Q13554); experiment: Inhibition of CAMK2B (unknown origin) assessed as remaining activity at 1 uM by Kinome scan method relative to control
[2] = target: Cyclin-dependent kinase-like 3 (Homo sapiens) (UniProt Q8IVW4); experiment: Inhibition of CDKL3 (unknown origin) assessed as remaining activity at 1 uM by Kinome scan method relative to control
[3] = target: Casein kinase I isoform gamma-3 (Homo sapiens) (UniProt Q9Y6M4); experiment: Inhibition of CSNK1G3 (unknown origin) assessed as remaining activity at 1 uM by Kinome scan method relative to control
Sequence of Casein kinase I isoform gamma-3 (Homo sapiens) (Q9Y6M4 whole entry, looked up, the tested form may be a part, canonical isoform): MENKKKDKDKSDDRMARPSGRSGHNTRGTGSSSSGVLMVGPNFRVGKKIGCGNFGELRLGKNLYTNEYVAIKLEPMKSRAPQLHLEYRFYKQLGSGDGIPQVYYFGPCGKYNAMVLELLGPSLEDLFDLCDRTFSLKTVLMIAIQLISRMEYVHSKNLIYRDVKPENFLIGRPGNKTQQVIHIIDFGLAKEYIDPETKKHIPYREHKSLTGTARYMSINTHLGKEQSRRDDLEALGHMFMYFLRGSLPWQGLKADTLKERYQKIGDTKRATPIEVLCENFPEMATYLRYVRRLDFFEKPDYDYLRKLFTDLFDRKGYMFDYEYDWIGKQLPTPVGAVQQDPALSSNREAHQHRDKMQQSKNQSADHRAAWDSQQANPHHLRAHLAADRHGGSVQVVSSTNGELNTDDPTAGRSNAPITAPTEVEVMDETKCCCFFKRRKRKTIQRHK

[4] = system: eIF-2-alpha kinase GCN2 (Homo sapiens), Q9P2K8 [S808G]; experiment: Inhibition of GCN2 S808G mutant kinase domain 2 (unknown origin) assessed as remaining activity at 1 uM by Kinome scan method relative to control
[5] = target: Serine/threonine-protein kinase MAK (Homo sapiens) (UniProt P20794); experiment: Inhibition of MAK (unknown origin) assessed as remaining activity at 1 uM by Kinome scan method relative to control
[6] = target: Serine/threonine-protein kinase PAK 4 (Homo sapiens) (UniProt O96013); experiment: Inhibition of PAK4 (unknown origin) assessed as remaining activity at 1 uM by Kinome scan method relative to control
[7] = target: Phosphatidylinositol 4-phosphate 3-kinase C2 domain-containing subunit beta (Homo sapiens) (UniProt O00750); experiment: Inhibition of PIK3C2B (unknown origin) assessed as remaining activity at 1 uM by Kinome scan method relative to control
[8] = target: Receptor-interacting serine/threonine-protein kinase 1 (Homo sapiens) (UniProt Q13546); experiment: Inhibition of RIPK1 (unknown origin) assessed as remaining activity at 1 uM by Kinome scan method relative to control
[9] = target: Vascular endothelial growth factor receptor 2 (Homo sapiens) (UniProt P35968); experiment: Inhibition of VEGFR2 (unknown origin) assessed as remaining activity at 1 uM by Kinome scan method relative to control
[10] = target: 5'-AMP-activated protein kinase catalytic subunit alpha-1 (Homo sapiens) (UniProt Q13131); experiment: Inhibition of human AMPKalpha1 assessed as residual activity at 1 uM using RBER-CHKtide as substrate in presence of 33P-ATP by ProQinase assay relative to control
[11] = target: Casein kinase I isoform gamma-3 (Homo sapiens) (UniProt Q9Y6M4); experiment: Inhibition of human CK1gamma3 assessed as residual activity at 1 uM using casein as substrate in presence of 33P-ATP by ProQinase assay relative to control
[12] = target: Dual specificity protein kinase CLK3 (Homo sapiens) (UniProt P49761); experiment: Inhibition of human CLK3 assessed as residual activity at 1 uM using RB-S6P as substrate in presence of 33P-ATP by ProQinase assay relative to control
[13] = target: Ephrin type-A receptor 2 (Homo sapiens) (UniProt P29317); experiment: Inhibition of human EPHA2 assessed as residual activity at 1 uM using polyEy as substrate in presence of 33P-ATP by ProQinase assay relative to control
[14] = target: Ephrin type-A receptor 8 (Homo sapiens) (UniProt P29322); experiment: Inhibition of human EPHA8 assessed as residual activity at 1 uM using polyEy as substrate in presence of 33P-ATP by ProQinase assay relative to control
[15] = target: Mitogen-activated protein kinase 8 (Homo sapiens) (UniProt P45983); experiment: Inhibition of human JNK1 assessed as residual activity at 1 uM using ATF2 as substrate in presence of 33P-ATP by ProQinase assay relative to control
Sequence of Mitogen-activated protein kinase 8 (Homo sapiens) (P45983 whole entry): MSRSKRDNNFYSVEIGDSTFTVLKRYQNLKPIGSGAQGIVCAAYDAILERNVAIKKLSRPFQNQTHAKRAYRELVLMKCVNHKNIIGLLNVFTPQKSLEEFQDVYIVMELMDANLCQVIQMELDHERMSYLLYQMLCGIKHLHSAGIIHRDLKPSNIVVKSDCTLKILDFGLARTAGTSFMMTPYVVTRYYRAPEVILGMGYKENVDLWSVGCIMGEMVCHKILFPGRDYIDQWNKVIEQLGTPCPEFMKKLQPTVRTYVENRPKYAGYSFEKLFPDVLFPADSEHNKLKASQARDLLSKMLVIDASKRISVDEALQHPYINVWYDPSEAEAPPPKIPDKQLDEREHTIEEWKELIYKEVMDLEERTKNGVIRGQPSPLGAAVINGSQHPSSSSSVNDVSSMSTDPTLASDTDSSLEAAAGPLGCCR

[16] = target: Maternal embryonic leucine zipper kinase (Homo sapiens) (UniProt Q14680); experiment: Inhibition of human MELK assessed as residual activity at 1 uM using RBER-CHKtide as substrate in presence of 33P-ATP by ProQinase assay relative to control
Sequence of Maternal embryonic leucine zipper kinase (Homo sapiens) (Q14680 whole entry, looked up): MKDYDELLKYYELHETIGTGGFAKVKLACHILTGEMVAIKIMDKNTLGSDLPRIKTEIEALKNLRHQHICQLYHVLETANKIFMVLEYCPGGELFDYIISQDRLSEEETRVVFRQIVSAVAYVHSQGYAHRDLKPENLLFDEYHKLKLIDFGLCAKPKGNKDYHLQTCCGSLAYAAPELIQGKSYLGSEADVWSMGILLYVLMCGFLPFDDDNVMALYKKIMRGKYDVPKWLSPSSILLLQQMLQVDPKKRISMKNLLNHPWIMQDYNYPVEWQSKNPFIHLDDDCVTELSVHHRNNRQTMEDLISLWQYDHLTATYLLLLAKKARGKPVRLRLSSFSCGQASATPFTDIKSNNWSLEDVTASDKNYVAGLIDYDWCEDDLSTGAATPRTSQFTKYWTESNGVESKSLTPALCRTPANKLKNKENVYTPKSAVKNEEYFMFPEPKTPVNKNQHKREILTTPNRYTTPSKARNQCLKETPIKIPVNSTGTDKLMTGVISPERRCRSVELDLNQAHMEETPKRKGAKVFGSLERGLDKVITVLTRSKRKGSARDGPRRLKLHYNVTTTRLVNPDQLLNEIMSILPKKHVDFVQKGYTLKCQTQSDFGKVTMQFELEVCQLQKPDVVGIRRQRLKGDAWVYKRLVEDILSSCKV

[17] = target: Serine/threonine-protein kinase pim-1 (Homo sapiens) (UniProt P11309); experiment: Inhibition of human PIM1 assessed as residual activity at 1 uM using RBER-GSK3(14-27) as substrate in presence of 33P-ATP by ProQinase assay relative to control
Sequence of Serine/threonine-protein kinase pim-1 (Homo sapiens) (P11309 whole entry, looked up): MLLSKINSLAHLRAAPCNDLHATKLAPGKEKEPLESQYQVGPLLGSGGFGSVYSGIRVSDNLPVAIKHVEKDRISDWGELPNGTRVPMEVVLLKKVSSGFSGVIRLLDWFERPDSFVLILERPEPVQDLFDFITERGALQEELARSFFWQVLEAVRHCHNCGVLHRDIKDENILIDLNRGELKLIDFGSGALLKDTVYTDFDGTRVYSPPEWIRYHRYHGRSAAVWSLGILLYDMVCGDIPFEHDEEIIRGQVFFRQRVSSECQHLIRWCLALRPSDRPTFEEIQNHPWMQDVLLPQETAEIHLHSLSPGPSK

[18] = target: Protein kinase C beta type (Homo sapiens) (UniProt P05771); experiment: Inhibition of human PKCbeta2 assessed as residual activity at 1 uM using 3xChocktide-PKC as substrate in presence of 33P-ATP by ProQinase assay relative to control
[19] = target: Proto-oncogene tyrosine-protein kinase ROS (Homo sapiens) (UniProt P08922); experiment: Inhibition of human ROS assessed as residual activity at 1 uM using poly(Ala,Glu,Lys,Tyr)6:2:5:1 as substrate in presence of 33P-ATP by ProQinase assay relative to control
Sequence of Proto-oncogene tyrosine-protein kinase ROS (Homo sapiens) (P08922 whole entry): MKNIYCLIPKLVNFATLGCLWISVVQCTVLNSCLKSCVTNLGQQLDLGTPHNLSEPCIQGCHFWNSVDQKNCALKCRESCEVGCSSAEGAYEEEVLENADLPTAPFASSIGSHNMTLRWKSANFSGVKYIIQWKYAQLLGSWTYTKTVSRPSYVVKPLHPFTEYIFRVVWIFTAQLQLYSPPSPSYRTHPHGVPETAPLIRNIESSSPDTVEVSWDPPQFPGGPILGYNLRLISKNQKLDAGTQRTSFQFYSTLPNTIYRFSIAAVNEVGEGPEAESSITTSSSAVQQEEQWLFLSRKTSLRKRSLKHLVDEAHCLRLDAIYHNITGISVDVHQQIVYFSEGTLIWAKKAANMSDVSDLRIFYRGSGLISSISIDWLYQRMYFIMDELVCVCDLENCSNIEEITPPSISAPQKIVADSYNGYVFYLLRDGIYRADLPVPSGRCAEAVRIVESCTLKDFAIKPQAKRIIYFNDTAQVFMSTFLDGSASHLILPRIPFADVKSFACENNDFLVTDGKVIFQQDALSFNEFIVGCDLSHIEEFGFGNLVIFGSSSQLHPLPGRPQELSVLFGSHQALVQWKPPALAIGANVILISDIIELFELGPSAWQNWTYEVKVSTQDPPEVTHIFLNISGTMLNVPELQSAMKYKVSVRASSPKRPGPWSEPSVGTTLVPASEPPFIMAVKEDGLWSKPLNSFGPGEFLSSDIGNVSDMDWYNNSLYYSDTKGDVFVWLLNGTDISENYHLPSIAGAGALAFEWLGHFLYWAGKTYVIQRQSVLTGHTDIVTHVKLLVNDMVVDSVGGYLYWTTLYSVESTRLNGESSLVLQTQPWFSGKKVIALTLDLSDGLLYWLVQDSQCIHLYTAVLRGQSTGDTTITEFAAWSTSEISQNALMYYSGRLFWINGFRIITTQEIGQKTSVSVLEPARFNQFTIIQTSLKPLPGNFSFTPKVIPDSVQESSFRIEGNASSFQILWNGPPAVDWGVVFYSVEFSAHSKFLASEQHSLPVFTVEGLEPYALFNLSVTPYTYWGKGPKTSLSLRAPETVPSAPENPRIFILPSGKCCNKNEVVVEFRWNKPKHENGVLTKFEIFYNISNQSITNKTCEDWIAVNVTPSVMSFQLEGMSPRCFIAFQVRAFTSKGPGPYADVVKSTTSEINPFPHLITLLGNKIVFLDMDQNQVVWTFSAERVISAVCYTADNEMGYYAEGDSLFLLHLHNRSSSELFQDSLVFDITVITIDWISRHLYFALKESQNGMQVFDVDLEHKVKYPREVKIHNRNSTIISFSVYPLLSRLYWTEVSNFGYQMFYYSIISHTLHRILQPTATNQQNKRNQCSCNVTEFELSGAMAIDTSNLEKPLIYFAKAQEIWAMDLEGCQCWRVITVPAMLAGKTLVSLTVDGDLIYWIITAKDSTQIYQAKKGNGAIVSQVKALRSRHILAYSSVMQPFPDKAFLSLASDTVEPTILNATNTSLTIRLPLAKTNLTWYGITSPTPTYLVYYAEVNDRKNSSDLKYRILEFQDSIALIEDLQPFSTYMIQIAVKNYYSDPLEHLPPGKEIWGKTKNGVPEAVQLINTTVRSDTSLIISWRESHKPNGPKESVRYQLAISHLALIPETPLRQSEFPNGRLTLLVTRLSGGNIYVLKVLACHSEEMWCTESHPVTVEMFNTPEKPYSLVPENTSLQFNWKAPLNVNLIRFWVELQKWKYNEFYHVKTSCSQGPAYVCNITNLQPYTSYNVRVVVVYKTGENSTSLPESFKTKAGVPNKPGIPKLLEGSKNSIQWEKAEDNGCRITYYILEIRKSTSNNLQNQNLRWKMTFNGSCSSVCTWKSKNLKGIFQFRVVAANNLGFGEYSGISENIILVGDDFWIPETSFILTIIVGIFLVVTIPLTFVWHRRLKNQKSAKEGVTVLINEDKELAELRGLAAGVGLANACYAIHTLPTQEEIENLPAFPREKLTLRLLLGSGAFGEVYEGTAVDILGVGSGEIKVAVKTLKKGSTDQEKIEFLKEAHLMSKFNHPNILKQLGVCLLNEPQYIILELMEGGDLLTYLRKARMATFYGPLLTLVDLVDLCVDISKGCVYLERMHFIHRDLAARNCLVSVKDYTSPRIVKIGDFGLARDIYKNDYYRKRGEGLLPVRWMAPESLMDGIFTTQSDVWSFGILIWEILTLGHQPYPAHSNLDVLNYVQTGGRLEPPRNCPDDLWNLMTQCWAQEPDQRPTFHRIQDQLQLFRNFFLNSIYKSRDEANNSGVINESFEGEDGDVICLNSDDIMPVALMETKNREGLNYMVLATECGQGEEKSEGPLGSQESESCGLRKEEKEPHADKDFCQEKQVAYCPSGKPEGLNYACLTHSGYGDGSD

[20] = target: Ribosomal protein S6 kinase beta-2 (Homo sapiens) (UniProt Q9UBS0); experiment: Inhibition of human S6K-beta assessed as residual activity at 1 uM using RBER-CHKtide as substrate in presence of 33P-ATP by ProQinase assay relative to control
[21] = target: NUAK family SNF1-like kinase 2 (Homo sapiens) (UniProt Q9H093); experiment: Inhibition of human SNARK assessed as residual activity at 1 uM using histone H2B as substrate in presence of 33P-ATP by ProQinase assay relative to control
[22] = target: Serine/threonine-protein kinase 16 (Homo sapiens) (UniProt O75716); experiment: Inhibition of human TSF1 assessed as residual activity at 1 uM using casein as substrate in presence of 33P-ATP by ProQinase assay relative to control
[23] = target: T1, Tyrosine-protein kinase TXK (Homo sapiens) (UniProt P42681); experiment: Inhibition of human TXK assessed as residual activity at 1 uM using RBER-CHKtide as substrate in presence of 33P-ATP by ProQinase assay relative to control
T1 sequence (whole entry): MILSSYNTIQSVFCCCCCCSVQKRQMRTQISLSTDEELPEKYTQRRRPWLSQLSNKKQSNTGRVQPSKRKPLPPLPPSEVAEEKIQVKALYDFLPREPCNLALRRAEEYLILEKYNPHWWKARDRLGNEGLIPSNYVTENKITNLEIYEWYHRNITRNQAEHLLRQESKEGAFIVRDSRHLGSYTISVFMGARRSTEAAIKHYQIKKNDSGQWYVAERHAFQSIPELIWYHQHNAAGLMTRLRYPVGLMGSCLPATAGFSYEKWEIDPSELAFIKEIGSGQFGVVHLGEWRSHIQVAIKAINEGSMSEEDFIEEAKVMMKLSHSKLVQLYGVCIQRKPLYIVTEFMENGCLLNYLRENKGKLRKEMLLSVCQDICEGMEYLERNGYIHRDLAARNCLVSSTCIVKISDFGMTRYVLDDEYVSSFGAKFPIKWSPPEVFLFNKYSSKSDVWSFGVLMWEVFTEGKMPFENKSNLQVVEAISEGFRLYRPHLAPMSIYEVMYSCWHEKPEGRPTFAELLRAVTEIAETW

CYP3A4 = CYP3A4 (Homo sapiens, UniProt P08684); experiment: Inhibition of CYP3A4 (unknown origin) at 10 uM relative to control; type: ADME

Sequence of Calcium/calmodulin-dependent protein kinase type II subunit beta (Homo sapiens) (Q13554 whole entry): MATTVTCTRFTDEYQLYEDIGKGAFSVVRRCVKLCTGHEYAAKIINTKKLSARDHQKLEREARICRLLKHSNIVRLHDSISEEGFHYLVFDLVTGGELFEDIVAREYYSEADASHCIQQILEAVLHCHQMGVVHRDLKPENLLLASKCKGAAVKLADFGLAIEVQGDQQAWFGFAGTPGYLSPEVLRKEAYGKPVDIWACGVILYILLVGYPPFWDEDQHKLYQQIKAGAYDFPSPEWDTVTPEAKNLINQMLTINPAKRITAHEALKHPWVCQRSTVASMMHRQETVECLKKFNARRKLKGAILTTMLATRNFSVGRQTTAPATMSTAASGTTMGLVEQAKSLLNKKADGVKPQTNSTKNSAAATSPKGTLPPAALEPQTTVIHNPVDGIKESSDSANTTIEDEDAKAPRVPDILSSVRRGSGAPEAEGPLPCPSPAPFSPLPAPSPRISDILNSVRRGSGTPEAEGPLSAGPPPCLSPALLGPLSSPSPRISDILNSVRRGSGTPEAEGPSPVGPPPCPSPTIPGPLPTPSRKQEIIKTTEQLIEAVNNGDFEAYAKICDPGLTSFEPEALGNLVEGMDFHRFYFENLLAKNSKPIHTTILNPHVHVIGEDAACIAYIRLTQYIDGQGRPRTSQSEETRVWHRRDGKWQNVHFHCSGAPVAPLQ

## O=C1c2ccc(Nc3ccc(F)cc3F)cc2CCc2ccc(OC[C@H](O)CO)cc21 [Skepinone-L]
[1]
  Activity: 100%
[2]
  Activity: 78%
[3]
  Activity: 100%
[4]
  Activity: 100%
[5]
  Activity: 84%
[6]
  Activity: 100%
[7]
  Activity: 100%
[8]
  Activity: 100%
[9]
  Activity: 100%
[10]
  Activity: 84%
[11]
  Activity: 95%
[12]
  Activity: 88%
[13]
  Activity: 119%
[14]
  Activity: 95%
[15]
  Activity: 98%
[16]
  Activity: 81%
[17]
  Activity: 105%
[18]
  Activity: 97%
[19]
  Activity: 102%
[20]
  Activity: 89%
[21]
  Activity: 115%
[22]
  Activity: 94%
[23]
  Activity: 93%
CYP3A4
  inhibition at 10 µM: 34%
